Results: patent US20260183274A1, “PDK1 REGULATORY COMPOUND AND COMPOSITION CONTAINING THE SAME” (PROVIBIO CO., LTD., priority 2024, published 2026)
Where two headings read alike, the source gives them in different places.

Assays:
Format in all cases: cell-based
[1] = test system: T cells isolated from mouse spleens; assay: T cell proliferation inhibition (CFSE flow cytometry, anti-CD3/anti-CD28 stimulation); conditions: mouse spleen T cells, 3 days; for inhibition at 0.1 µM / inhibition at 1 µM / inhibition at 10 µM / inhibition at 30 µM / inhibition at 50 µM / inhibition at 0.01 µM: Mus musculus, T-cell, 72 h, read-out: Proliferation inhibition rate (%)
Outline: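 Proliferation inhibition (%) came from flow cytometry of CFSE dilution after 3 days' culture at 37 °C with compound (10 nM, 100 nM, 1, 10, 30, 50 μM; triplicate wells). Cells were magnetically purified T cells from C57BL/6 mouse spleens, 2×10^5 per well, stimulated with 0.5 μg/mL each anti-CD3 and anti-CD28.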

[2] = test system: Human B Lymphocyte cell line, SU-DHL-8; assay: Relative cell viability CCK-8, SU-DHL-8
Outline: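 Cells grown in RPMI-1640 with 10% FBS, treated with compound at several concentrations, then given CCK-8 for 4 h at 37° C. Viability expressed as percent of DMSO-treated cells.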

[3] = test system: Human Bladder cancer cell, T24; assay: Relative cell viability CCK-8, T24; conditions: for Relative cell viability (%), T24: 48 hours
Method: (§1) Human-derived breast cancer cell line MCF-7, human-derived lung cancer cell line A549, human-derived colorectal cancer cell line HCT-116, human pancreatic cancer cell line AsPC-1, glioblastoma cell line A172, and melanoma cell line Malme-3M were obtained from the Korean Cell Bank. gastric cancer cell line SNU-719, and bladder cancer cell line T24 were cultured in RPMI-1640 medium containing 10% FBS.
(§2) Following stabilization, the cells were harvested using Trypsin-EDTA treatment, centrifuged at 1,200 rpm for 3 minutes, the supernatant was removed, and the cells were resuspended in the same medium. They were then seeded into a 96-well plate (Costar 96-well cell culture plate, Corning) at 100 μL per well, and the conditions were adjusted as indicated in Table 5.
(§3) The cells were cultured in a 5% CO2 incubator at 37° C. for 24 hours, and after stabilization of the cells, each plate was washed with 200 μL of PBS per well and treated with 50 μL of culture medium per well.
(§4) After that, 10 μL of CCK-8 was added to each well, and the plate was incubated again at 37° C. in a 5% CO2 incubator for 2 hours.
(§5) In other words, when the survival rate of untreated cells (DMSO) is set at 100%, the relative cell survival rate in each group treated with the drug at different concentrations is indicated.

[4] = test system: Human Osteosarcoma, Saos-2; assay: Relative cell viability CCK-8, Saos-2; conditions: for Relative cell viability (%), Saos-2: 48 hours
Method: Human-derived head and neck cancer cell line Fadu and osteosarcoma cell line Saos-2 were cultured in MEM medium containing 10% FBS, 100 U/mL penicillin, and 100 μg/mL streptomycin.
as §2, §3, §4, §5

[5] = test system: Human Colorectal Carcinoma cell line, HCT-116; assay: Relative cell viability CCK-8, HCT-116; conditions: 48 hours; for viability at 1 µM / viability at 10 µM / viability at 30 µM / viability at 50 µM: Homo sapiens, HCT-116
Method: as §1, §2, §3, §4, §5

[6] = Homo sapiens, SU-DHL-8, 48 h, read-out: Relative cell viability (%), SU-DHL-8, 1 μM, 48 hours, untreated (DMSO) = 100%
[7] = Homo sapiens, SU-DHL-8, 48 h, read-out: Relative cell viability (%), SU-DHL-8, 10 μM, 48 hours, untreated (DMSO) = 100%
[8] = 30 μM, 48 hours, untreated (DMSO) = 100%
[9] = 50 μM, 48 hours, untreated (DMSO) = 100%

## Nc1ncccc1C(=O)NCCCCCCCCCCCCN1CCNCC1 [Compound 5, 2-Amino-N-(12-(piperazin-1-yl)dodecyl)-nicotinamide]
[1]; compound 100 nM
  inhibition at 0.1 µM: 100%
[1]; compound 1 μM
  inhibition at 1 µM: 100%
[1]; compound 10 μM
  inhibition at 10 µM: 100%
[1]; compound 30 μM
  inhibition at 30 µM: 100%
[1]; compound 50 μM
  inhibition at 50 µM: 100%
[1]; compound 10 nM, listed as GO78, 0.01 µM
  Proliferation inhibition rate (%): −27.49%
[2]; [6]
  viability at 1 µM: 8.8%
[2]; [7]
  viability at 10 µM: 5.87%
[2]; human, 48 h, 30 µM
  Relative cell viability (%), SU-DHL-8: 4.63%
[2]; human, 48 h, 50 µM
  Relative cell viability (%), SU-DHL-8: 3.67%
[3]; 1 μM, listed as GO78, 1 µM
  Relative cell viability (%), T24: 28.34%
[3]; 10 μM, listed as GO78, 10 µM
  Relative cell viability (%), T24: 30.42%
[3]; 30 μM, listed as GO78, 30 µM
  Relative cell viability (%), T24: 29.73%
[3]; 50 μM, listed as GO78, 50 µM
  Relative cell viability (%), T24: 29.32%
[4]; 1 μM, listed as GO78, 1 µM
  Relative cell viability (%), Saos-2: 28.36%
[4]; 10 μM, listed as GO78, 10 µM
  Relative cell viability (%), Saos-2: 33.69%
[4]; 30 μM, listed as GO78, 30 µM
  Relative cell viability (%), Saos-2: 19.77%
[4]; 50 μM, listed as GO78, 50 µM
  Relative cell viability (%), Saos-2: 2.60%

## Nc1ncccc1C(=O)NCCCCCCCCCCCCN1CCNCC1 [Compound 14, 2-Amino-N-(12-(piperazin-1-yl)dodecyl)nicotinamide]
[1]; compound 10 nM, listed as GO88, 0.01 µM
  Proliferation inhibition rate (%): 17.83%
[1]; compound 10 μM, listed as GO88, 10 µM
  Proliferation inhibition rate (%): 85.09%
[1]; compound 30 μM, listed as GO88, 30 µM
  Proliferation inhibition rate (%): 98.95%
[2]; human, 48 h, 1 µM
  Relative cell viability (%), SU-DHL-8: 9.28%
[2]; human, 48 h, 10 µM
  Relative cell viability (%), SU-DHL-8: 3.31%
[2]; human, 48 h, 30 µM
  Relative cell viability (%), SU-DHL-8: 1.16%
[2]; human, 48 h, 50 µM
  Relative cell viability (%), SU-DHL-8: 0.32%
[3]; 1 μM, listed as GO88, 1 µM
  Relative cell viability (%), T24: 9.88%
[3]; 10 μM, listed as GO88, 10 µM
  Relative cell viability (%), T24: 11.01%
[3]; 30 μM, listed as GO88, 30 µM
  Relative cell viability (%), T24: 9.22%
[3]; 50 μM, listed as GO88, 50 µM
  Relative cell viability (%), T24: 7.47%
[4]; 50 μM, listed as GO88, 50 µM
  Relative cell viability (%), Saos-2: 0.00%
[4]; Homo sapiens, SAOS-2, 48 h, 1 μM
  viability at 1 µM: 47.1%
[4]; Homo sapiens, SAOS-2, 48 h, 10 μM
  viability at 10 µM: 34.2%
[4]; Homo sapiens, SAOS-2, 48 h, 30 μM
  viability at 30 µM: 16.3%
[5]; 1 μM
  viability at 1 µM: 14.2%
[5]; 10 μM
  viability at 10 µM: 12.3%
[5]; 30 μM
  viability at 30 µM: 9.38%
[5]; 50 μM
  viability at 50 µM: 7.61%

## CC1(C)CN(CCCCCCCCCCCCC(=O)Nc2nc(N)c3[nH]cnc3n2)CCO1 [Compound 11, 12-[4-(2,2-dimethylmorpholin-4-yl)]dodecyl-N-(6-aminopurine-2-yl) carboxamide]
[1]; compound 10 nM
  Proliferation inhibition rate (%): −25.47%
[1]; compound 100 nM
  Proliferation inhibition rate (%): 100.00%
[1]; compound 1 μM
  Proliferation inhibition rate (%): 100.00%
[1]; compound 10 μM
  Proliferation inhibition rate (%): 100.00%
[1]; compound 30 μM
  Proliferation inhibition rate (%): 100.00%
[1]; compound 50 μM
  Proliferation inhibition rate (%): 100.00%
[2]; 1 μM, 48 hours, untreated (DMSO) = 100%
  Relative cell viability (%), SU-DHL-8: 7.63%
[2]; 10 μM, 48 hours, untreated (DMSO) = 100%
  Relative cell viability (%), SU-DHL-8: 6.09%
[2]; [8]
  Relative cell viability (%), SU-DHL-8: 4.82%
[2]; [9]
  Relative cell viability (%), SU-DHL-8: 3.29%
[3]; 1 μM
  Relative cell viability (%), T24: 28.15%
[3]; 10 μM
  Relative cell viability (%), T24: 31.17%
[3]; 30 μM
  Relative cell viability (%), T24: 30.42%
[3]; 50 μM
  Relative cell viability (%), T24: 29.34%
[4]; 1 μM
  Relative cell viability (%), Saos-2: 36.73%
[4]; 10 μM
  Relative cell viability (%), Saos-2: 24.98%
[4]; 30 μM
  Relative cell viability (%), Saos-2: 16.00%
[4]; 50 μM
  Relative cell viability (%), Saos-2: 36.73%
[5]; 1 μM
  Relative cell viability (%), HCT-116: 21.36%
[5]; 10 μM
  Relative cell viability (%), HCT-116: 24.91%
[5]; 30 μM
  Relative cell viability (%), HCT-116: 24.78%
[5]; 50 μM
  Relative cell viability (%), HCT-116: 25.26%

## Nc1ncccc1C(=O)NCCCCCCCCCCCCF [Compound 57, 2-Amino-N-(12-fluoro-dodecyl)-nicotinamide]
[1]; compound 30 μM
  inhibition at 30 µM: 100%
[1]; compound 50 μM
  inhibition at 50 µM: 100%
[1]; compound 10 nM
  Proliferation inhibition rate (%): −9.32%
[1]; compound 100 nM
  Proliferation inhibition rate (%): −5.28%
[1]; compound 1 μM
  Proliferation inhibition rate (%): 16.20%
[2]; [8]
  Relative cell viability (%), SU-DHL-8: 15.63%
[2]; [9]
  Relative cell viability (%), SU-DHL-8: 11.94%
[2]; Homo sapiens, SU-DHL-8, 48 h, 1 μM, 48 hours, untreated (DMSO) = 100%, read-out: Relative cell viability (%), SU-DHL-8
  viability at 1 µM: 19%
[2]; Homo sapiens, SU-DHL-8, 48 h, 10 μM, 48 hours, untreated (DMSO) = 100%, read-out: Relative cell viability (%), SU-DHL-8
  viability at 10 µM: 18.8%

## Nc1ncccc1C(=O)NCCCCCCCCCCCCN1CCOCC1 [Compound 2, 2-Amino-N-(12-morpholin-4-yl-dodecyl)-nicotinamide]
[1]; compound 10 nM
  inhibition at 0.01 µM: -1.47%
[1]; compound 100 nM
  inhibition at 0.1 µM: 0%
[1]; compound 1 μM
  inhibition at 1 µM: 0%
[1]; compound 10 μM
  inhibition at 10 µM: 100%
[1]; compound 30 μM
  inhibition at 30 µM: 100%
[1]; compound 50 μM
  inhibition at 50 µM: 100%
[2]; [6]
  viability at 1 µM: 31%
[2]; [7]
  viability at 10 µM: 26%
[2]; Homo sapiens, SU-DHL-8, 48 h, read-out: Relative cell viability (%), SU-DHL-8, 30 μM, 48 hours, untreated (DMSO) = 100%
  viability at 30 µM: 25.3%
[2]; Homo sapiens, SU-DHL-8, 48 h, read-out: Relative cell viability (%), SU-DHL-8, 50 μM, 48 hours, untreated (DMSO) = 100%
  viability at 50 µM: 24.7%

## Nc1nc(NC(=O)CCCCCCCCCCCCN2CCN(CCO)CC2)nc2nc[nH]c12 [Compound 15, 12-[4-(2-hydroxyethyl)piperazin-1-yl]dodecyl-N-(6-aminopurine-2-yl) carboxamide]
[1]; compound 10 nM
  inhibition at 0.01 µM: -0.4%
[1]; compound 100 nM
  inhibition at 0.1 µM: 100%
[1]; compound 1 μM
  inhibition at 1 µM: 100%
[1]; compound 10 μM
  inhibition at 10 µM: 100%
[1]; compound 30 μM
  inhibition at 30 µM: 100%
[1]; compound 50 μM
  inhibition at 50 µM: 100%
[3]; Homo sapiens, 48 h, 1 μM
  viability at 1 µM: 7.92%
[3]; Homo sapiens, 48 h, 10 μM
  viability at 10 µM: 9.29%
[3]; Homo sapiens, 48 h, 30 μM
  viability at 30 µM: 9.57%
[3]; Homo sapiens, 48 h, 50 μM
  viability at 50 µM: 8.75%
[5]; 1 μM
  viability at 1 µM: 12.1%
[5]; 10 μM
  viability at 10 µM: 11.5%
[5]; 30 μM
  viability at 30 µM: 10%
[5]; 50 μM
  viability at 50 µM: 9.08%
